Molecular target: T1, GFRα1-RET (Homo sapiens, UniProt P56159)
T1 construct: expressed in transfected cells; host or cells: MG87 murine fibroblast
Assay: Luciferase assay: activation of Elk1 signaling in reporter-gene cells expressing GFRα1-RET (MG87 murine fibroblast stably transfected with PathDetect Elk-1, GFRα1, and RET)
Format: cell-based
Details: Table 4; MG87 murine fibroblasts with PathDetect Elk-1, GFRα1, RET; 6 concentrations, duplicate, two times independently; agonist/activator activity; read-out: Luciferase Assay EC50
Procedure: The purpose of this experiment was to evaluate the GFRα1-RET activity of the compounds 001-060 according to the invention.
The compounds were tested for their activating activity of Elk1 signaling using the previously developed reporter-gene-based system in cells expressing GFRα1-RET (MG87 murine fibroblast stably transfected with PathDetect Elk-1, GFRα1, and RET) disclosed in Sidorova, Y. A. et al.: “Persephin signaling through GFRα1: The potential for the treatment of Parkinson's disease.” Molecular and Cellular Neuroscience, July 2010, Vol. 44, pp. 223-232. DOI: 10.1016/j.mcn.2010.03.009. For EC50 determination, a dose-response test was performed using 6 concentrations of each tested compound. Dose-response curves were fitted using the sigmoidal dose-response (variable slope) analysis in GraphPad Prism program (Graph Pad Inc) and EC50 of agonist/activator activity was calculated. Dose-response experiments were all performed in duplicate, two times independently.
The compounds were tested for their activating activity of Elk1 signaling using the same materials and methods than for the compounds according to the invention (Example 2 herein, section “Materials and methods”).

T1 sequence (P56159 25-429 limits assumed): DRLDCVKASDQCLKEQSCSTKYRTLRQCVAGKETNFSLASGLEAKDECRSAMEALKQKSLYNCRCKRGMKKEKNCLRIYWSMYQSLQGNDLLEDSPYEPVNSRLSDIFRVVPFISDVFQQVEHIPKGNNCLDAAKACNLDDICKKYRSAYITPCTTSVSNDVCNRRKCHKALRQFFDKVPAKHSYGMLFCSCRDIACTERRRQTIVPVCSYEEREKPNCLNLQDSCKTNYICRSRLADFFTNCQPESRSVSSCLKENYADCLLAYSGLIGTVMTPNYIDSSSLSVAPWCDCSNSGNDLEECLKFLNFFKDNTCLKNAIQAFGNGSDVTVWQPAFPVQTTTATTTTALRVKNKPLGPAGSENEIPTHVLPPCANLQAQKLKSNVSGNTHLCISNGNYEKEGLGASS
T1 sequence (P07949 29-1114 partner): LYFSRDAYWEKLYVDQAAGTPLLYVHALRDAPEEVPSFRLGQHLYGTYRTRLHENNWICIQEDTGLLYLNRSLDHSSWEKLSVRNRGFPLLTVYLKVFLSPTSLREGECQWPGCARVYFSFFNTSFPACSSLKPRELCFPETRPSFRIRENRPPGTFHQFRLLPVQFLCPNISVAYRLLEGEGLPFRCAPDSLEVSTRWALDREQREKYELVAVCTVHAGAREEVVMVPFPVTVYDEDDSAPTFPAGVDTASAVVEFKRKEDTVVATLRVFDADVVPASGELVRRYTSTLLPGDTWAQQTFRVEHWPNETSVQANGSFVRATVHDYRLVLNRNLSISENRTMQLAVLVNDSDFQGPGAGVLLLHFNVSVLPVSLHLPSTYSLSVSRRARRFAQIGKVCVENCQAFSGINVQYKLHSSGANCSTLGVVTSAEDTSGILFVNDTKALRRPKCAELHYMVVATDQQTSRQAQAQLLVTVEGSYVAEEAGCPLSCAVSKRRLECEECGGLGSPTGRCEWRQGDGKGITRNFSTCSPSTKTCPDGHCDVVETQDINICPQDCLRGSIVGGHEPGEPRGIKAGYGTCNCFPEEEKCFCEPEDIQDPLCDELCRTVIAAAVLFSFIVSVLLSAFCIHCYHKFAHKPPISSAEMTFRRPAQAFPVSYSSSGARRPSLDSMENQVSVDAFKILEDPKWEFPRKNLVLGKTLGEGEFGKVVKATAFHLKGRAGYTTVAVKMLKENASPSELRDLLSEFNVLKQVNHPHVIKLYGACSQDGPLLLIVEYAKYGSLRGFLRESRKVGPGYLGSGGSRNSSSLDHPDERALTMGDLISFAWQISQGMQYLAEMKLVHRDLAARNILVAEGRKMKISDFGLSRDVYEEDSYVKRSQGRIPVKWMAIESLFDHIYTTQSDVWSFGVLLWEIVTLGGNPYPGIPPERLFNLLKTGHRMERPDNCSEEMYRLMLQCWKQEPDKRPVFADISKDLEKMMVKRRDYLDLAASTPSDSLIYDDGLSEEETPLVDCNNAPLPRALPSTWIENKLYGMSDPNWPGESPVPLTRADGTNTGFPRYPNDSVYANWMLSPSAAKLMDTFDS

First: COc1ccc(S(=O)(=O)N2CCCC(Cc3ccccc3)C2)cc1N1CCN(C(=O)c2ccc(F)cc2Cl)CC1 (stereo not drawn) [Compound 027, (2-chloro-4-fluoro-phenyl)-[4-[2-methoxy-5-[[3-benzyl-1-piperidyl]sulfonyl]phenyl]piperazin-1-yl]methanone]
Second: COc1ccc(S(=O)(=O)N2CCC(Cc3ccccc3)C2)cc1N1CCN(C(=O)c2ccc(F)cc2Cl)CC1 (stereo not drawn) [Compound 029, (2-chloro-4-fluoro-phenyl)-[4-[2-methoxy-5-[3-benzylpyrrolidin-1-yl]sulfonyl-phenyl]piperazin-1-yl]methanone]
The EC50 of the first is lower: 1 to 5 µM for the first, 5 to 10 µM for the second. The first is the more potent here.

COc1ccc(S(=O)(=O)N2CCC(c3ccccc3)C2)cc1N1CCN(C(=O)c2ccc(F)cc2Cl)CC1 (stereo not drawn) [Compound 028, (2-chloro-4-fluoro-phenyl)-[4-[2-methoxy-5-[3-phenylpyrrolidin-1-yl]sulfonyl-phenyl]piperazin-1-yl]methanone] and COc1ccc(S(=O)(=O)N2CCC(OCc3ccccc3)C2)cc1N1CCN(C(=O)c2ccc(F)cc2Cl)CC1 (stereo not drawn) [Compound 039, (2-chloro-4-fluoro-phenyl)-[4-[2-methoxy-5-[3-benzyloxypyrrolidin-1-yl]sulfonyl-phenyl]piperazin-1-yl]methanone] fall in the same range of EC50: 1 to 5 µM for the first, 1 to 5 µM for the second.

First: CCCN(C)S(=O)(=O)c1ccc(OC)c(N2CCN(C(=O)c3ccc(F)cc3Cl)CC2)c1 [Compound 030, 3-[4-(2-chloro-4-fluoro-benzoyl)piperazin-1-yl]-4-methoxy-N-methyl-N-propyl-benzenesulfonamide]
Second: COc1ccc(S(=O)(=O)N(C)CCCC(F)(F)F)cc1N1CCN(C(=O)c2ccc(F)cc2Cl)CC1 [Compound 037, 3-[4-(2-chloro-4-fluoro-benzoyl)piperazin-1-yl]-4-methoxy-N-methyl-N-(4,4,4-trifluorobutyl)benzenesulfonamide]
The EC50 of the first is lower: 1 to 5 µM for the first, 10 to 50 µM for the second. The first is the more potent here.

Compared with COc1ccc(S(=O)(=O)N2CCC(C(F)(F)F)CC2)cc1N1CCN(C(=O)c2ccc(F)cc2Cl)CC1 [Compound 031, (2-chloro-4-fluoro-phenyl)-[4-[2-methoxy-5-[[4-(trifluoromethyl)-1-piperidyl]sulfonyl]phenyl]piperazin-1-yl]methanone], COc1ccc(S(=O)(=O)N2CCC(c3ccc(F)cc3)CC2)cc1N1CCN(C(=O)c2ccc(F)cc2Cl)CC1 [Compound 050, (2-chloro-4-fluoro-phenyl)-[4-[5-[[4-(4-fluorophenyl)-1-piperidyl]sulfonyl]-2-methoxy-phenyl]piperazin-1-yl]methanone] is lower in EC50: 1 to 5 µM for the first, < 1 µM for the second.

First: COc1ccc(S(=O)(=O)NC(C)(C)C)cc1N1CCN(C(=O)c2ccc(F)cc2Cl)CC1 [Compound 032, N-tert-butyl-3-[4-(2-chloro-4-fluoro-benzoyl)piperazin-1-yl]-4-methoxy-benzenesulfonamide]
Second: COc1ccc(S(=O)(=O)N(C)C(C)(C)C)cc1N1CCN(C(=O)c2ccc(F)cc2Cl)CC1 [Compound 033, N-tert-butyl-3-[4-(2-chloro-4-fluoro-benzoyl)piperazin-1-yl]-4-methoxy-N-methyl-benzenesulfonamide]
The EC50 of the first is lower: 1 to 5 µM for the first, 5 to 10 µM for the second.

Compared with COc1ccc(S(=O)(=O)NC2C3CC4CC(C3)CC2C4)cc1N1CCN(C(=O)c2ccc(F)cc2Cl)CC1 (stereo not drawn) [Compound 034, N-(2-adamantyl)-3-[4-(2-chloro-4-fluoro-benzoyl)piperazin-1-yl]-4-methoxy-benzenesulfonamide], COc1ccc(S(=O)(=O)N2CC3CCC2C3)cc1N1CCN(C(=O)c2ccc(F)cc2Cl)CC1 (stereo not drawn) [Compound 036, (2-chloro-4-fluoro-phenyl)-[4-[2-methoxy-5-[[2-azabicyclo[2.2.1]heptan-2-yl]sulfonyl]phenyl]piperazin-1-yl]methanone] is higher in EC50: 5 to 10 µM for the first, 10 to 50 µM for the second.

COc1ccc(S(=O)(=O)NC2(C)CCCCC2)cc1N1CCN(C(=O)c2ccc(F)cc2Cl)CC1 [Compound 035, 3-[4-(2-chloro-4-fluoro-benzoyl)piperazin-1-yl]-4-methoxy-N-(1-methylcyclohexyl)benzenesulfonamide] and COc1ccc(S(=O)(=O)N2CCCC(OCc3ccccc3)C2)cc1N1CCN(C(=O)c2ccc(F)cc2Cl)CC1 (stereo not drawn) [Compound 038, (2-chloro-4-fluoro-phenyl)-[4-[2-methoxy-5-[[3-benzyloxy-1-piperidyl]sulfonyl]phenyl]piperazin-1-yl]methanone] fall in the same range of EC50: 1 to 5 µM for the first, 1 to 5 µM for the second.

First: COc1ccc(S(=O)(=O)N2CC3CN(Cc4ccccc4)CC3C2)cc1N1CCN(C(=O)c2ccc(F)cc2Cl)CC1 (stereo not drawn) [Compound 040, [4-[5-[[2-benzyl-1,3,3a,4,6,6a-hexahydropyrrolo[3,4-c]pyrrol-5-yl]sulfonyl]-2-methoxy-phenyl]piperazin-1-yl]-(2-chloro-4-fluoro-phenyl)methanone]
Second: CCCN(C)S(=O)(=O)c1ccc(OCc2ccccc2)c(N2CCN(C(=O)c3ccc(F)cc3C(F)(F)F)CC2)c1 [Compound 047, 4-benzyloxy-3-[4-[4-fluoro-2-(trifluoromethyl)benzoyl]piperazin-1-yl]-N-methyl-N-propyl-benzenesulfonamide]
The EC50 of the first is higher: 10 to 50 µM for the first, 1 to 5 µM for the second. The second is the more potent here.

CCN(CC)S(=O)(=O)c1cccc(N2CCN(C(=O)c3ccc(F)cc3C(F)(F)F)CC2)c1 [Compound 041, N,N-diethyl-3-[4-[4-fluoro-2-(trifluoromethyl)benzoyl]piperazin-1-yl]benzenesulfonamide] and CCN(CC)S(=O)(=O)c1cnc(Cl)c(N2CCN(C(=O)c3ccc(F)cc3C(F)(F)F)CC2)c1 [Compound 044, 6-chloro-N,N-diethyl-5-[4-[4-fluoro-2-(trifluoromethyl)benzoyl]piperazin-1-yl]pyridine-3-sulfonamide] fall in the same range of EC50: 10 to 50 µM for the first, 10 to 50 µM for the second.

First: CCCN(C)S(=O)(=O)c1ccc(F)c(N2CCN(C(=O)c3ccc(F)cc3C(F)(F)F)CC2)c1 [Compound 042, 4-fluoro-3-[4-[4-fluoro-2-(trifluoromethyl)benzoyl]piperazin-1-yl]-N-methyl-N-propyl-benzenesulfonamide]
Second: CCCN(C)S(=O)(=O)c1ccc(O)c(N2CCN(C(=O)c3ccc(F)cc3C(F)(F)F)CC2)c1 [Compound 048, 3-[4-[4-fluoro-2-(trifluoromethyl)benzoyl]piperazin-1-yl]-4-hydroxy-N-methyl-N-propyl-benzenesulfonamide]
The EC50 of the first is lower: 1 to 5 µM for the first, 5 to 10 µM for the second. The first is the more potent here.

First: CCCN(C)S(=O)(=O)c1cc2c(c(N3CCN(C(=O)c4ccc(F)cc4C(F)(F)F)CC3)c1)OCC2 [Compound 043, 7-[4-[4-fluoro-2-(trifluoromethyl)benzoyl]piperazin-1-yl]-N-methyl-N-propyl-2,3-dihydrobenzofuran-5-sulfonamide]
Second: CCCN(C)S(=O)(=O)c1ccc(OCCO)c(N2CCN(C(=O)c3ccc(F)cc3C(F)(F)F)CC2)c1 [Compound 049, 3-[4-[4-fluoro-2-(trifluoromethyl)benzoyl]piperazin-1-yl]-4-(2-hydroxyethoxy)-N-methyl-N-propyl-benzenesulfonamide]
The EC50 of the first is lower: 1 to 5 µM for the first, 10 to 50 µM for the second. The first is the more potent here.

First: CCN(CC)S(=O)(=O)c1cnc(OC)c(N2CCN(C(=O)c3ccc(F)cc3C(F)(F)F)CC2)c1 [Compound 045, N,N-diethyl-5-[4-[4-fluoro-2-(trifluoromethyl)benzoyl]piperazin-1-yl]-6-methoxy-pyridine-3-sulfonamide]
Second: CCCN(C)S(=O)(=O)c1ccc(OCCOC)c(N2CCN(C(=O)c3ccc(F)cc3C(F)(F)F)CC2)c1 [Compound 046, 3-[4-[4-fluoro-2-(trifluoromethyl)benzoyl]piperazin-1-yl]-4-(2-methoxyethoxy)-N-methyl-N-propyl-benzenesulfonamide]
The EC50 of the first is higher: 10 to 50 µM for the first, 5 to 10 µM for the second.
